These results are taken from publication PMC11978698, “Differential uptake of arginine derivatives by the human heteromeric amino acid transporter b^0,+AT-rBAT (SLC7A9-SLC3A1)” (Naunyn-Schmiedeberg's Archives of Pharmacology, 2024).

Data set [1] deals with T1, b0,+AT (SLC7A9), in the heteromeric transporter b0,+AT-rBAT (Homo sapiens, UniProt P82251).
T1 sequence (P82251 1-487): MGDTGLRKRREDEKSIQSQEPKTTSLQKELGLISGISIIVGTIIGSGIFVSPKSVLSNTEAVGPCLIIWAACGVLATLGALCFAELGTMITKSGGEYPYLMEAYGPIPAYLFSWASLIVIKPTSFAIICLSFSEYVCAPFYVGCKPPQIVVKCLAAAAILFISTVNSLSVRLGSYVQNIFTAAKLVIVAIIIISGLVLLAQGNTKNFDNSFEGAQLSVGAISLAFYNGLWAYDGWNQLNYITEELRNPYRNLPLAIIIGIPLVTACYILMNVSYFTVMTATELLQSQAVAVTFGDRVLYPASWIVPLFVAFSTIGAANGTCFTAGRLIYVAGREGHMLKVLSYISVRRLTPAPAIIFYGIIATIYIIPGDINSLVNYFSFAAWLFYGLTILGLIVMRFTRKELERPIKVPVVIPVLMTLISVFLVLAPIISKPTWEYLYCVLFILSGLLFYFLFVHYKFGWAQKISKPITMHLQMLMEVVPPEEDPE
T1 sequence (Q07837 1-685 partner): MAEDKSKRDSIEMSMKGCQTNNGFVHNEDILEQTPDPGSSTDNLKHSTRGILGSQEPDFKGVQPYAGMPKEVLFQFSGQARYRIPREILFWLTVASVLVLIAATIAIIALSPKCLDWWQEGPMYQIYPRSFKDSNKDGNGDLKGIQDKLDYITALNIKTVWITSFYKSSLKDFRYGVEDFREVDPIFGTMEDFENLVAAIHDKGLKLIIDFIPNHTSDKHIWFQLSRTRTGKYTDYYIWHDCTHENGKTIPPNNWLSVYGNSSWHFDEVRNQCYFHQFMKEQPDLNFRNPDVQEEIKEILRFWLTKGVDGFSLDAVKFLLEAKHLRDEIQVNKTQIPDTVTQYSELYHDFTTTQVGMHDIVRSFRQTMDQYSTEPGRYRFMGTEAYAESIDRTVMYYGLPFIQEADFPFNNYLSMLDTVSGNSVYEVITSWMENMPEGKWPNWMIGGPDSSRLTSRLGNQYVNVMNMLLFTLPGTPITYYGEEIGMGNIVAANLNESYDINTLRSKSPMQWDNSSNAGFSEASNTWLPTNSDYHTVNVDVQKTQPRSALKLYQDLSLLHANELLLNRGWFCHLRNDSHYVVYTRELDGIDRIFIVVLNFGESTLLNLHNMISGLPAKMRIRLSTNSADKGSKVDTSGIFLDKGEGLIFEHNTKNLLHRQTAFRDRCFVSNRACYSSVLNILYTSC
In words: cell-based.

Data set [2] addresses T1, b0,+AT (SLC7A9), in the heteromeric transporter b0,+AT-rBAT. The note with it: read-out: radiolabeled uptake in double-transfected MDCK cells, not saturated up to 4000 μ.
Data set [3] shares this target. The data set can be described thus: inhibition of radiolabeled L-arginine ([…]), L-homoarginine and ADMA uptake by […] L-cystine in double-transfected MDCK cells. It counts as cell-based. Also noted: human b0,+AT (NM_001126335) co-expressed with human rBAT (NM_000341.3) in MDCKII cells; with rBAT (SLC3A1).
Substrate in data set [4]: N=C(N)NCCCC[C@H](N)C(=O)O
In words: cells, lysate or membranes.

As usually defined, the IC50 is the concentration at which inhibition is half-maximal. On to `N=C(N)NCCC[C@H](N)C(=O)O` [L-arginine], for which the IC50 in data set [1] came to 116 µM.

For `CN(C)C(=N)NCCC[C@H](N)C(=O)O` [asymmetric dimethylarginine], the Km in data set [2] was above 4000 µM.

Regarding `N[C@@H](CSSC[C@H](N)C(=O)O)C(=O)O` [L-cystine], the “inhibition of radiolabeled L-arginine (100 μM), L-homoarginine and ADMA uptake b” value in data set [3] is “the uptake of L-homoarginine (Fig. 9c) and ADMA (Fig. 9d) was significantly inhibited at the low tested concentrations”.

B1: b0,+AT (SLC7A9), in the heteromeric transporter b0,+AT-rBAT (Homo sapiens) (protein)
chain: MGDTGLRKRREDEKSIQSQEPKTTSLQKELGLISGISIIVGTIIGSGIFVSPKSVLSNTEAVGPCLIIWAACGVLATLGALCFAELGTMITKSGGEYPYLMEAYGPIPAYLFSWASLIVIKPTSFAIICLSFSEYVCAPFYVGCKPPQIVVKCLAAAAILFISTVNSLSVRLGSYVQNIFTAAKLVIVAIIIISGLVLLAQGNTKNFDNSFEGAQLSVGAISLAFYNGLWAYDGWNQLNYITEELRNPYRNLPLAIIIGIPLVTACYILMNVSYFTVMTATELLQSQAVAVTFGDRVLYPASWIVPLFVAFSTIGAANGTCFTAGRLIYVAGREGHMLKVLSYISVRRLTPAPAIIFYGIIATIYIIPGDINSLVNYFSFAAWLFYGLTILGLIVMRFTRKELERPIKVPVVIPVLMTLISVFLVLAPIISKPTWEYLYCVLFILSGLLFYFLFVHYKFGWAQKISKPITMHLQMLMEVVPPEEDPE
As to B1, the Km in data set [4] was 197.0 µM.
